Source: PubChem BioAssay (NCI)
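Results reflect a 48-hour exposure of cells in 96-well plates to compound at five concentrations. TGI: total growth inhibition.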

Key:
Assay in all cases: growth of human tumour cells (NCI), 48 h
786-0 renal = system: 786-0 renal
A498 renal = system: A498 renal
A549 NSCLC = system: A549 NSCLC
ACHN renal = system: ACHN renal
CAKI-1 renal = system: CAKI-1 renal
CCRF-CEM leukemia = system: CCRF-CEM leukemia
COLO 205 colon = system: COLO 205 colon
DLD-1 colon = system: DLD-1 colon
DMS 114 small cell lung = system: DMS 114 small cell lung
DMS 273 small cell lung = system: DMS 273 small cell lung
EKVX NSCLC = system: EKVX NSCLC
HCC-2998 colon = system: HCC-2998 colon
HCT-15 colon = system: HCT-15 colon
HOP-18 NSCLC = system: HOP-18 NSCLC
HOP-62 NSCLC = system: HOP-62 NSCLC
HOP-92 NSCLC = system: HOP-92 NSCLC
HT29 colon = system: HT29 colon
IGROV1 ovarian = system: IGROV1 ovarian
K-562 leukemia = system: K-562 leukemia
KM12 colon = system: KM12 colon
KM20L2 colon = system: KM20L2 colon
LOX IMVI melanoma = system: LOX IMVI melanoma
M14 melanoma = system: M14 melanoma
M19-MEL melanoma = system: M19-MEL melanoma
MALME-3M melanoma = system: MALME-3M melanoma
MOLT-4 leukemia = system: MOLT-4 leukemia
NCI-H23 lung = system: NCI-H23 lung
NCI-H460 lung = system: NCI-H460 lung
NCI-H522 lung = system: NCI-H522 lung
OVCAR-3 ovarian = system: OVCAR-3 ovarian
OVCAR-4 ovarian = system: OVCAR-4 ovarian
OVCAR-5 ovarian = system: OVCAR-5 ovarian
OVCAR-8 ovarian = system: OVCAR-8 ovarian
RPMI-8226 leukemia = system: RPMI-8226 leukemia
RXF 393 renal = system: RXF 393 renal
RXF-631 renal = system: RXF-631 renal
SF-268 CNS = system: SF-268 CNS
SF-539 CNS = system: SF-539 CNS
SK-MEL-2 melanoma = system: SK-MEL-2 melanoma
SK-MEL-28 melanoma = system: SK-MEL-28 melanoma
SK-MEL-5 melanoma = system: SK-MEL-5 melanoma
SK-OV-3 ovarian = system: SK-OV-3 ovarian
SN12C renal = system: SN12C renal
SNB-19 CNS = system: SNB-19 CNS
SNB-75 CNS = system: SNB-75 CNS
SNB-78 CNS = system: SNB-78 CNS
SW-620 colon = system: SW-620 colon
TK-10 renal = system: TK-10 renal
U251 CNS = system: U251 CNS
UACC-257 melanoma = system: UACC-257 melanoma
UACC-62 melanoma = system: UACC-62 melanoma
UO-31 renal = system: UO-31 renal
HCT-116 colon = system: HCT-116 colon
LXFL 529 NSCLC = system: LXFL 529 NSCLC
NCI-H226 lung = system: NCI-H226 lung
SF-295 CNS = system: SF-295 CNS

Measured: TGI

Cc1cc(C)nc(NS(=O)(=O)c2ccc(Nc3c4ccccc4nc4c(C(=O)Nc5ccc(S(=O)(=O)N=C(N)N)cc5)cccc34)cc2)n1
85.1 µM: RXF 393 renal
88.5 µM: SNB-75 CNS
not listed: HCT-116 colon | LXFL 529 NSCLC | NCI-H226 lung | SF-295 CNS
> 100 µM: all other assays above

COc1ccc(/C=C2\CCC(C)(CN(C)C)C2=O)cc1OC (configuration not stated)
not listed: SK-OV-3 ovarian
> 100 µM: all other assays above
